Measured values taken from ChEMBL document CHEMBL1201862, “PubChem BioAssay data set” (2004).
Blank lines part the entries; values can stand above or below the compound they belong to. Active and inactive are the calls of the source.

Tests used:
CHO = experiment: cytotoxicity in TLR9-MyD88 CHO cells, dose response, cytotoxicity control for TLR9-MyD88 binding inhibitor project, cell-based, luminescence (AID 588339); format: functional, hamster; conditions: Cricetulus griseus;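 further: CHO cells stably coexpressing TLR9 and MyD88 fusions from primary screen; compound exposure lasted 48 hours before viability readout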
[1] = biological target: Induced myeloid leukemia cell differentiation protein Mcl-1 (Homo sapiens, UniProt Q07820); format: functional
Beta Lactamase = Beta Lactamase (Pseudomonas aeruginosa, UniProt Q932Y6); experiment: beta-lactamase reporter inhibitor potency, dose response, artefact control for TLR9-MyD88 binding inhibitor project, BLA reporter cells, FRET fluorescence (AID 588341); format: cell-based;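 further: cell based assay in CHO-K1 cells stably expressing beta-lactamase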
[2] = biological target: T1, Voltage-gated N-type calcium channel alpha-1B subunit/Amyloid beta A4 precursor protein-binding family A member 1 (Homo sapiens, UniProt Q00975+Q02410); format: protein assay
[3] = biological target: T1, Voltage-gated N-type calcium channel alpha-1B subunit/Amyloid beta A4 precursor protein-binding family A member 1; format: protein assay; remark: listed apart in the source
[4] = biological target: T2, Short transient receptor potential channel 4 (Mus musculus, UniProt Q9QUQ5); experiment: TRPC4 inhibitor concentration-response, dose response, cell-based, HEK293 TRPC4/mu-opioid, DAMGO stimulus, Fluo-4 (AID 492994); format: functional
T2 sequence (Q9QUQ5 whole entry): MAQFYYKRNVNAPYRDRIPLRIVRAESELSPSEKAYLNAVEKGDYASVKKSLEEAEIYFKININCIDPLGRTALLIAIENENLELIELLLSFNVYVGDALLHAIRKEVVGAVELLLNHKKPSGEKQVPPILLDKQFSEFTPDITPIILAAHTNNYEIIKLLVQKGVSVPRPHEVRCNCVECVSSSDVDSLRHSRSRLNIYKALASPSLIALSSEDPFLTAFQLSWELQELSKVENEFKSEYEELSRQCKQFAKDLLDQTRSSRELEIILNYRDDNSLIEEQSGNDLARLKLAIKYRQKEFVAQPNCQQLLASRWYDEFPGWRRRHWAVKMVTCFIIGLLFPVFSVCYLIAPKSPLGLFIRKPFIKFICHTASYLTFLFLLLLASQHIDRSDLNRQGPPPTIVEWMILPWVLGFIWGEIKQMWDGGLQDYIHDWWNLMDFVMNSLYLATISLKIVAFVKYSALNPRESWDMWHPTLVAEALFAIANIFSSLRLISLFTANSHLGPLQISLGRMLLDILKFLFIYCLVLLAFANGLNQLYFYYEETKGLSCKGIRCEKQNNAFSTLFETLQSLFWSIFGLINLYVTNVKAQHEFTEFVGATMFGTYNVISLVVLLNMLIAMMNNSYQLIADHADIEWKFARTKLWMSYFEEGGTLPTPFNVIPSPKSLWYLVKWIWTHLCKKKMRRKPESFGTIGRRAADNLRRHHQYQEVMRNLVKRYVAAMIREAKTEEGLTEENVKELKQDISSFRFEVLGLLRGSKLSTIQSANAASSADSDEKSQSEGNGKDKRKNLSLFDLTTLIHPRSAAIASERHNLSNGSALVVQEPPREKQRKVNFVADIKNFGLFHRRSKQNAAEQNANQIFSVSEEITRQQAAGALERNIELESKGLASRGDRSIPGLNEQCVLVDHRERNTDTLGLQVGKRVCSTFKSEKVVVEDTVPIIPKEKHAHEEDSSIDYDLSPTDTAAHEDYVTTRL

[5] = biological target: Short transient receptor potential channel 6 (Mus musculus, UniProt Q61143); experiment: TRPC6 inhibition potency of TRPC4 inhibitor analogs, dose response, selectivity assay for selective TRPC4 inhibitor project, HEK293 cells, membrane potential dye, IC50 (AID 492987); format: functional, cell-based
[6] = biological target: T2, Short transient receptor potential channel 4; experiment: SAR Analysis for the identification of selective inhibits of the transient receptor potential cation channel C4 (TRPC4): Automated Electrophysiology_2. [Related pubchem assays (depositor defined):AID2256]; format: functional
[7] = NIH-3T3 fibroblast cytotoxicity, dose response, cytotoxicity control, cell-based, fluorescence, Alamar Blue, secondary assay (AID 2327); format: functional;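 further: NIH-3T3 mouse fibroblasts cultured with fluconazole at 8 µg/mL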
[8] = C. albicans growth with fluconazole, confirmation, fluorescence, retest (AID 2467); format: functional, cell-based
[9] = biological target: Serine/threonine-protein phosphatase (Candida dubliniensis (strain CD36 / CBS 7987 / NCPF 3949 / NRRLY-17841) (Yeast), UniProt B9W6M3); experiment: calcineurin pathway inhibitors in yeast reporter, dose response, S. cerevisiae, CDRE-lacZ, luminescence, secondary (AID 2388); format: functional, cell-based;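 further: yeast reporter cells carrying a calcineurin-responsive lacZ construct stimulated with calcium chloride; luminescent beta-galactosidase reporter signal in whole cells rather than isolated phosphatase activity; potency for inhibition where a drop in reporter signal means calcineurin blockade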
[10] = biological target: ATP-dependent molecular chaperone HSP82 (Candida albicans (strain WO-1) (Yeast), UniProt C4YTQ8); experiment: loss of DOC-induced GRE-beta-galactosidase reporter signal, dose response, Hsp90 inhibitor project, S. cerevisiae, luminescence (AID 2400); format: functional, cell-based;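 further: beta-galactosidase luminescence from glucocorticoid response element reporter as proxy for Hsp90 function; inhibitor potency where signal loss means Hsp90 inhibition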
Hexokinase-1 = biological target: T3, Hexokinase-1 (Homo sapiens, UniProt P19367); experiment: SAR analysis of small molecule inhibitors of hexokinase domain containing I (HKDC1) in the hexokinase 1 selectivity assay. [Related pubchem assays (depositor defined):AID493160, AID493190]; format: functional
T3 sequence (P19367 whole entry): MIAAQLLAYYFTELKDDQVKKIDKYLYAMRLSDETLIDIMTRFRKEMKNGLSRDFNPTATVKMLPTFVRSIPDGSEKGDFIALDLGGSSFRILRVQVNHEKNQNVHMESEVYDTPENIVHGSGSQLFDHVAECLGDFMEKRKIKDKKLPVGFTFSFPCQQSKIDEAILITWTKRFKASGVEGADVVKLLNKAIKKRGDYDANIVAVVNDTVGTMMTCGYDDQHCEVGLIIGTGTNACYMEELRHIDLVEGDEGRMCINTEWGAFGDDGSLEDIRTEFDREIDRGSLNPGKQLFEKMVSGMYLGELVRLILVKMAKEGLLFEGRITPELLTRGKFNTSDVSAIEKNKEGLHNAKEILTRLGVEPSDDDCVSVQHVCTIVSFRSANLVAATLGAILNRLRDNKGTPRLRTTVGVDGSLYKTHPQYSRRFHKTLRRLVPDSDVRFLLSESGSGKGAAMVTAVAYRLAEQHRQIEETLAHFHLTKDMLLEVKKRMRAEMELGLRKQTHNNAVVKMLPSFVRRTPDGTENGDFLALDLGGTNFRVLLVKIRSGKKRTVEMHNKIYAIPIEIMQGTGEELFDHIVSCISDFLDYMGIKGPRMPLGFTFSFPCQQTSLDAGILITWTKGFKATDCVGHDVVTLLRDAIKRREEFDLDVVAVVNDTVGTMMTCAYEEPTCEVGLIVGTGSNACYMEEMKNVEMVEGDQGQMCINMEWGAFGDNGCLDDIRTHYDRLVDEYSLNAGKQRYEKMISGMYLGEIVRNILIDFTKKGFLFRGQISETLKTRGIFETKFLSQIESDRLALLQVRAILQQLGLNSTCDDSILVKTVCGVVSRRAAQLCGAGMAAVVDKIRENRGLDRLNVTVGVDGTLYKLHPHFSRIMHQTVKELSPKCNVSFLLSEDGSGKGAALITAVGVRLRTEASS

Hexokinase HKDC1 = biological target: T4, Hexokinase HKDC1 (Homo sapiens, UniProt Q2TB90); experiment: SAR analysis of small molecule inhibitors of hexokinase domain containing I (HKDC1). [Related pubchem assays (depositor defined):AID493160, AID493190]; format: functional
T4 sequence (Q2TB90 whole entry): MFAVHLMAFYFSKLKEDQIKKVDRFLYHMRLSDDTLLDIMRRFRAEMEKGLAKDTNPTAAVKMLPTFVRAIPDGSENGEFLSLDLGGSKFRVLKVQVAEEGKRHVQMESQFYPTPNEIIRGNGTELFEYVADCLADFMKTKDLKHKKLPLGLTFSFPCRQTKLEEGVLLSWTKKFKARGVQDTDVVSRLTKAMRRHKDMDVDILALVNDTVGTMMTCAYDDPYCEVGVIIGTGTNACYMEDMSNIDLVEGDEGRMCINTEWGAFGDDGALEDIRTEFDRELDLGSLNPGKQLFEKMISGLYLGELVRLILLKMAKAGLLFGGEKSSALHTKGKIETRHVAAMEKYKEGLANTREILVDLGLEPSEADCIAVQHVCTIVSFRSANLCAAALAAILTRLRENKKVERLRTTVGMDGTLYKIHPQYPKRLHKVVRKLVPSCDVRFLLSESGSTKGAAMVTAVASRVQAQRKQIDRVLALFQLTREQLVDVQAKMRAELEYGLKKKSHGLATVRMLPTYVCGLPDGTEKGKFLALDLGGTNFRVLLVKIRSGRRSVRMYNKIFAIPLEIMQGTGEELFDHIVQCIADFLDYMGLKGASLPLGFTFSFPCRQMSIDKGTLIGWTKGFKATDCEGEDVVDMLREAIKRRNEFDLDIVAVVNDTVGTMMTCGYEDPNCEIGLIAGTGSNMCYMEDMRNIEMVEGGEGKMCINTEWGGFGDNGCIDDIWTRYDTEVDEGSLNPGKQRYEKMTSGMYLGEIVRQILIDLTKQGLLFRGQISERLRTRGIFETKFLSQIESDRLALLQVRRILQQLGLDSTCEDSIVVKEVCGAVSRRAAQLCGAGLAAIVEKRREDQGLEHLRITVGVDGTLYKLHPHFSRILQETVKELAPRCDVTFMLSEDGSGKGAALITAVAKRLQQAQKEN

T1 sequence (Q00975 whole entry): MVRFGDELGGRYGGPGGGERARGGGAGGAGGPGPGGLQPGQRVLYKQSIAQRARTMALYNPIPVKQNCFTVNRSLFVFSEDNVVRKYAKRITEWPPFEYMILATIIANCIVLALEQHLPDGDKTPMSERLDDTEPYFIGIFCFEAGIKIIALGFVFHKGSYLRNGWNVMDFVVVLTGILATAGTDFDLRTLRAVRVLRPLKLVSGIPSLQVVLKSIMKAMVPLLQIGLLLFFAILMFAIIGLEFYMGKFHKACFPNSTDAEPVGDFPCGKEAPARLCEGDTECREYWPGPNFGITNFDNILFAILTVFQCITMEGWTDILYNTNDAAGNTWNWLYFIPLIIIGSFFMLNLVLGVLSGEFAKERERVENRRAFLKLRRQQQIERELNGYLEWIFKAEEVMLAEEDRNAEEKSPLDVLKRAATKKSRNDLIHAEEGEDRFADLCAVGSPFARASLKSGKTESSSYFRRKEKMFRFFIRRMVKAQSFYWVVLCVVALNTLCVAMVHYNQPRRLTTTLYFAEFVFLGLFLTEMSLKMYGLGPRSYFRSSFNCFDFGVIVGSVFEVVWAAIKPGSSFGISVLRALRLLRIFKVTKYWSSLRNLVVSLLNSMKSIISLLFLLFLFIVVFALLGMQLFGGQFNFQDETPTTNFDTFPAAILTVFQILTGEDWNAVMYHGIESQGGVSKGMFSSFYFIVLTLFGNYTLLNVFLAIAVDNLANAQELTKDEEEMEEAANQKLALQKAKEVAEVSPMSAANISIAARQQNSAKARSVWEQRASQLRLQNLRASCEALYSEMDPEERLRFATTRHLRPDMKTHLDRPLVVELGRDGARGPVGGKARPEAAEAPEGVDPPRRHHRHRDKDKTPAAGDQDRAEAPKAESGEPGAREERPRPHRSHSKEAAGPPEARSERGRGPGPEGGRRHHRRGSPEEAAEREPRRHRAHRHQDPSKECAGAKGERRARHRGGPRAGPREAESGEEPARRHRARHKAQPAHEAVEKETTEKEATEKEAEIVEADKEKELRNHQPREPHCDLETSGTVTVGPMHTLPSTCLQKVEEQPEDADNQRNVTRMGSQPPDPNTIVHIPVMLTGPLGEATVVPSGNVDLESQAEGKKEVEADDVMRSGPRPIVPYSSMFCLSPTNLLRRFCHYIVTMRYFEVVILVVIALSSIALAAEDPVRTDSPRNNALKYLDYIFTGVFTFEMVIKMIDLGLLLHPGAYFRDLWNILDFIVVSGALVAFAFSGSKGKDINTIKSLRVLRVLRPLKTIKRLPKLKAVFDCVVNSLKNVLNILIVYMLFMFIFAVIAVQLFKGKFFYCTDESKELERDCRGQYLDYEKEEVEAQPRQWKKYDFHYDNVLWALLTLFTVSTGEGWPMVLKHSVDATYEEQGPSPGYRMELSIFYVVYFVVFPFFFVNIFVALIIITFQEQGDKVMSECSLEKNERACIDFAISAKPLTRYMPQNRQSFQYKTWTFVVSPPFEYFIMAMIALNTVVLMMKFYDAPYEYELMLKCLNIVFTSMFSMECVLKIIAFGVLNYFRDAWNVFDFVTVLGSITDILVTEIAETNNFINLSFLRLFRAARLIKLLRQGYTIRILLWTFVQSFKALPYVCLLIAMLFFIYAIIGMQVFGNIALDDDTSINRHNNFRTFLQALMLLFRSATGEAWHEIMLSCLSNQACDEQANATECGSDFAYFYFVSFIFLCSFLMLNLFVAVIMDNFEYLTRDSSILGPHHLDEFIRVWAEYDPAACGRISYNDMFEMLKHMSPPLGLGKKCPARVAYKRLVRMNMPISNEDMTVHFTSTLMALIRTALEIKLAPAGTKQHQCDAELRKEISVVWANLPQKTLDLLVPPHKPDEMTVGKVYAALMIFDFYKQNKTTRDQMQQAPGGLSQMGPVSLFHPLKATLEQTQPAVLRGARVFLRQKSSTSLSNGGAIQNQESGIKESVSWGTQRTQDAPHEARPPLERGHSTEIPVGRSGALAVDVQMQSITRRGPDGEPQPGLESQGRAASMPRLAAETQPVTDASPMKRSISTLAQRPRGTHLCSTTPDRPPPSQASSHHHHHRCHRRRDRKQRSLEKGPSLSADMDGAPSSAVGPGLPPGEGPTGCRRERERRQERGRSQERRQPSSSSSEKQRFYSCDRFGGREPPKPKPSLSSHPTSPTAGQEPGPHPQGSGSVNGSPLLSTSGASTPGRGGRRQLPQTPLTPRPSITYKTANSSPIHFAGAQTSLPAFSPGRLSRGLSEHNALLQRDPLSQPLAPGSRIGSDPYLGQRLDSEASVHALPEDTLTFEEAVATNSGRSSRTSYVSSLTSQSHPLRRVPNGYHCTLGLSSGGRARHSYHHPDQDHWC
T1 sequence (Q02410 whole entry): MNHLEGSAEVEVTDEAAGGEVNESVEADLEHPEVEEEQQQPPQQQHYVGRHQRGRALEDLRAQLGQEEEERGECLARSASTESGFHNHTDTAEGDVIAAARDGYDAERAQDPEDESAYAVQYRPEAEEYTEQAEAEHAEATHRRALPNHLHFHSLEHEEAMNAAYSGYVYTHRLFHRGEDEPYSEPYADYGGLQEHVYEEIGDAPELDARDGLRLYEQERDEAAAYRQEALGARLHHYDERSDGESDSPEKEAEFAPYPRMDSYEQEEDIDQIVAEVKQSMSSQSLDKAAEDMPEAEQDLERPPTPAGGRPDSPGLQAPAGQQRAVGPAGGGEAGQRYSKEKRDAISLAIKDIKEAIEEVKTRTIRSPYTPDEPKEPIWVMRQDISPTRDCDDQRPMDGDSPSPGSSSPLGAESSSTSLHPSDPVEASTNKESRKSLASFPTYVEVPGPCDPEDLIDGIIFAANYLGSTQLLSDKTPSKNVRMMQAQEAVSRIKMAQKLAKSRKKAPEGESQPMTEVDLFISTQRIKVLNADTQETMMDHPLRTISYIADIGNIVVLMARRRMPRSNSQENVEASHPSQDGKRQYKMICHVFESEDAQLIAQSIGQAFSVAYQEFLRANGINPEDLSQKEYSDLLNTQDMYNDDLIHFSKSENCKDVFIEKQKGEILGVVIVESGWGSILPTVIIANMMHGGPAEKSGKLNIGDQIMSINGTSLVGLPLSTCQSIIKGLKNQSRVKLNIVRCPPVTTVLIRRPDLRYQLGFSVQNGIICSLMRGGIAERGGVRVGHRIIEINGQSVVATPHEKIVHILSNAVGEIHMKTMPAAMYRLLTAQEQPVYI
Serine/threonine-protein phosphatase, sequence (B9W6M3 whole entry): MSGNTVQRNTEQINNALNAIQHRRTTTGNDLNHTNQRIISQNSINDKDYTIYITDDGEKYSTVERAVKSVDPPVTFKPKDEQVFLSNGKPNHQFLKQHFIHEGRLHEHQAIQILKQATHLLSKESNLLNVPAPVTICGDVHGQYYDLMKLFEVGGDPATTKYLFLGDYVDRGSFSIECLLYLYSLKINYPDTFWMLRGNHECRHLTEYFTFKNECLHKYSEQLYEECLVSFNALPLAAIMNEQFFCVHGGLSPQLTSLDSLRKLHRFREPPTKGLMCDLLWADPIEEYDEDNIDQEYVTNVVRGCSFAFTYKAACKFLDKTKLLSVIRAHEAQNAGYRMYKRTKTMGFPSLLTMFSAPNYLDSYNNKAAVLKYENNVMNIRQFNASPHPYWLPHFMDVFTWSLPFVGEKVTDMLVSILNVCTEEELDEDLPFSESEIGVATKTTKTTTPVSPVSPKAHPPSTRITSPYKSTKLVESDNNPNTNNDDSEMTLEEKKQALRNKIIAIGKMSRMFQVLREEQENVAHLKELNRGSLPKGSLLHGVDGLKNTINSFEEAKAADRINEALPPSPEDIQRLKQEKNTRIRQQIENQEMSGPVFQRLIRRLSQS
Beta Lactamase, sequence (Q932Y6 whole entry): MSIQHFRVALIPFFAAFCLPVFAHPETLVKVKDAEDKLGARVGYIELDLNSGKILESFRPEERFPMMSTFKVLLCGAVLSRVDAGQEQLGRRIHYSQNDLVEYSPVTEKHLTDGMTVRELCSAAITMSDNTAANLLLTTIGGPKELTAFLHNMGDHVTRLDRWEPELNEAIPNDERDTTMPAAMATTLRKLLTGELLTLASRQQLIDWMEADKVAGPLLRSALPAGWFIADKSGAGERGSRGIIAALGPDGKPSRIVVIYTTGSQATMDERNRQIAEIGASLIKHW
ATP-dependent molecular chaperone HSP82, sequence (C4YTQ8 whole entry, the tested form may be a part): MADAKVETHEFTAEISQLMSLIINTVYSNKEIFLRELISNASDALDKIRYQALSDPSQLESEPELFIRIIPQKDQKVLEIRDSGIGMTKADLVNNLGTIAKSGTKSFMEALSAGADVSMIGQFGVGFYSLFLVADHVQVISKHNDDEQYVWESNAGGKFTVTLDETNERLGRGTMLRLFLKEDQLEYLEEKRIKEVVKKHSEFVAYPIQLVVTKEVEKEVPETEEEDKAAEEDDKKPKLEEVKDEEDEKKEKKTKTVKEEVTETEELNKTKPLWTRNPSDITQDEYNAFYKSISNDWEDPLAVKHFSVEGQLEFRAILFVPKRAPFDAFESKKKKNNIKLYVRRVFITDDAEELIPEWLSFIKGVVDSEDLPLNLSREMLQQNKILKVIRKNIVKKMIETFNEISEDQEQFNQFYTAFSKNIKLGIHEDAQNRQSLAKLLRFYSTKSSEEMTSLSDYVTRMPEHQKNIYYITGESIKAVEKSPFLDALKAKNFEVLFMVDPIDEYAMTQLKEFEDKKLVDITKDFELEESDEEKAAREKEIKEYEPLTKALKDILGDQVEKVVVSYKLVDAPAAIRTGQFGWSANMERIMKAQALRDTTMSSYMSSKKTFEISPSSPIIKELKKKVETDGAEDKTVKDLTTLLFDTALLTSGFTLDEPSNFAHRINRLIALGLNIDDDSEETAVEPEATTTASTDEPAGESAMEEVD

SMILES: Cc1cc2nc(/C=C/c3nc4cc(C)c(C)cc4[nH]3)[nH]c2cc1C
IC50 (CHO): > 49.7 µM (inactive) | IC50 [1]: 3.67 µM (active) | IC50 (Beta Lactamase): 20.9 µM (inactive) | IC50 [2]: 18.5 µM (active) | IC50 [3]: > 50 µM (inactive)

IC50 [4]: 1.3 µM (active) | IC50 [5]: 12.8 µM (active) | IC50 [6]: 0.9 µM (active)
SMILES: Cc1ccc2nc(N3CCCCCC3)cc(C)c2c1

SMILES: N#Cc1cc(C#N)c(N2CCN(c3cccc(Cl)n3)CC2)nc1N
EC50 [7]: > 150 µM (inactive) | EC50 [8]: 1.47 µM (active) | EC50 [9]: > 180 µM (inactive) | EC50 [10]: 23.7 µM (active)

IC50 (Hexokinase-1): > 80 µM (inactive) | IC50 (Hexokinase HKDC1): > 80 µM (inactive)
SMILES: O=c1c2ccccc2nc(/C=C/c2cccnc2)n1Cc1ccc(F)cc1
